According to US20110306621A1, “ACYLGUANIDINE DERIVATIVES” (priority 2009, published 2011):
Structures can show the parent of a compound that is named as a salt.

target: T1, human 5-HT5A receptor (Homo sapiens, UniProt P47898); assay: Test on a human 5-HT5A receptor binding inhibition ([3H]5-CT); conditions: membrane from HEK293 cells for forced expression of human 5-HT5A receptor; Ki calculated from IC50 and Kd of [3H]5-CT (4.95 nM)
T1 construct: expressed in transfected cells; membranes used
Outline: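 Membranes from HEK293 cells stably expressing human 5-HT5A, preincubated with compound 15 min at room temperature, then 2 nM [3H]5-CT added (stock solution), 37 °C for 60 min; filter-bound radioactivity counted. IC50 versus 1 μM 5-CT as full inhibition; Ki via Cheng–Prusoff using Kd 4.95 nM.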

T1 sequence (P47898 whole entry): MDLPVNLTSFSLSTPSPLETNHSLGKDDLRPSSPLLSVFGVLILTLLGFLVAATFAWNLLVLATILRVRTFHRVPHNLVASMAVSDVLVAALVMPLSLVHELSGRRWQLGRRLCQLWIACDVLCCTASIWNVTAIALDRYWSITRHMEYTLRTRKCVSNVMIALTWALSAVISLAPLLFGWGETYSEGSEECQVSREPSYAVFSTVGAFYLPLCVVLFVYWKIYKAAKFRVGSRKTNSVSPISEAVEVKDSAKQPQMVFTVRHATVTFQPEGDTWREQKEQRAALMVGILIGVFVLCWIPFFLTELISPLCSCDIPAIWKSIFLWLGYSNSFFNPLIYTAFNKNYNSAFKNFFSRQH

| SMILES | Ki [nM] |
| --- | --- |
| NC(N)=NC(=O)c1ccc2cccc(-c3ncc(C4CC4)cc3Cl)c2c1 [Example 192] | 3 to 30 |
| Cc1c(-c2cccc3ccc(C(=O)N=C(N)N)cc23)ncnc1C1CC1 [Example 193] | 30 to 300 |
| NC(N)=NC(=O)c1ccc2cccc(-c3ncc(C(F)(F)F)cc3Cl)c2c1 [Example 194] | 3 to 30 |
| COc1cccnc1-c1cccc2ccc(C(=O)N=C(N)N)cc12 [Example 195] | 30 to 300 |
| N#Cc1cnc(-c2cccc3ccc(C(=O)N=C(N)N)cc23)c(Cl)c1 [Example 196] | 3 to 30 |
| NC(N)=NC(=O)c1ccc2cccc(-c3cc(C4CC4)ncc3F)c2c1 [Example 199] | 3 to 30 |
| Cc1cnc(-c2cccc3ccc(C(=O)N=C(N)N)cc23)c(Cl)c1 [Example 200] | 3 to 30 |
| NC(N)=NC(=O)c1ccc2cccc(-c3ccccn3)c2c1 [Example 201] | 3 to 30 |
| NC(N)=NC(=O)c1ccc2cccc(-c3ccnc(C4CC4)c3C3CC3)c2c1 [Example 202] | 3 to 30 |

Further lines, results first:

| Ki [nM] | SMILES |
| --- | --- |
| 0.96 | NC(N)=NC(=O)c1ccc2cccc(-c3c(F)cccc3Cl)c2c1 [Example 1, 8-(2-chloro-6-fluorophenyl)-N-(diaminomethylene)-2-naphthamide hydrochloride] |
| 0.3 to 3 | NC(N)=NC(=O)c1ccc2cccc(-c3cc(C4CC4)ncc3Cl)c2c1 [Example 185] |
| 0.3 to 3 | Cc1nc(C)c(-c2c(F)ccc3ccc(C(=O)N=C(N)N)cc23)s1 [Example 186] |
| 3 to 30 | NC(N)=NC(=O)c1ccc2cccc(-c3ccnc(C(F)(F)F)n3)c2c1 [Example 187] |
| 0.3 to 3 | COc1cc(C#N)ccc1-c1ccc(F)c2ccc(C(=O)N=C(N)N)cc12 [Example 188] |
| 3 to 30 | NC(N)=NC(=O)c1ccc2cccc(-c3ccc(C(F)(F)F)cn3)c2c1 [Example 189] |
| 0.3 to 3 | NC(N)=NC(=O)c1ccc2cccc(-c3ncc(F)cc3F)c2c1 [Example 190] |
| 0.3 to 3 | NC(N)=NC(=O)c1ccc2cccc(-c3c(F)cccc3C3CC3)c2c1 [Example 191] |
| 0.3 to 3 | NC(N)=NC(=O)c1ccc2cccc(-c3cc(Cl)ncc3F)c2c1 [Example 197] |
| 0.3 to 3 | NC(N)=NC(=O)c1ccc2cccc(-c3ccnc(C4CC4)c3F)c2c1 [Example 198] |

tested on: mouse in which hyperactivity was caused by methamphetamine (MAP) or MK-801; assay: Improvement effect on increase in motion induced by methamphetamine or MK-801 in mice; assay type: in vivo; conditions: male ICR mouse; compound oral at a dose of 0.1 mg/kg; MK-801 0.3 mg/kg i.p.; motion for 60 minutes; P<0.05
Method: The improvement effect of compound of formula (I) was evaluated by measuring the quantity of motion by IR irradiation when a compound was administered to a mouse in which hyperactivity was caused by methamphetamine (hereinafter, simply referred to as “MAP”) or MK-801, known as an animal model of schizophrenia.
The animal was taken out of the breeding cage, orally administered with a compound to be tested, and then placed into a cage for breeding. After 30 minutes, the animal was put into a cage for measurement, and motion with the compound to be tested alone was measured. After 30 to 90 minutes, the animal was taken out, and intraperitoneally administered with a drug for increasing the motion (MAP; 1 mg/kg or MK-801; 0.3 mg/kg, dissolved in a physiological saline, respectively). Then, motion for a certain period of time (60 minutes) was measured by using a motion measurement device
(CompACT AMS from Muromachi Kikai Co., Ltd.) by means of an infrared sensor.
For normal mouse (a mouse administered with physiological saline) and mouse administered with a drug for increasing the motion, a Student's T test was performed for evaluation for each interval. For a mouse group administered with the compound to be tested, an assay was performed using a solvent (vehicle) group and a Dunnett's T test. […]

| SMILES | inhibition of hyperactivity caused by MK-801 |
| --- | --- |
| NC(N)=NC(=O)c1ccc2cccc(-c3c(F)cccc3Cl)c2c1 [Example 1, 8-(2-chloro-6-fluorophenyl)-N-(diaminomethylene)-2-naphthamide hydrochloride] | significantly inhibited |
